From patent US20070280972A1, “Adhesive solid gel-forming formulations for dermal drug delivery” (ZARS, Inc., priority 2006, published 2007)
Like-named read-outs stand apart in the source and are kept apart here.

Legend:
[1] = In vitro skin flux, Franz diffusion cell, hairless mouse skin; settings: for steady state flux in solid gel-forming formulation compared with flux-enabling non-volatile solvent alone: Table 16 vs solvent tables; for Avg. Flux / Average Flux: mean and st. dev of three; for Skin Flux: excess drug, linear region 4-8 hours, mean ± SD of three
[2] = Estimated therapeutically sufficient flux (steady state flux of marketed products, in vitro)
[3] = In vitro skin flux, Franz diffusion cell, human epidermal membrane / human cadaver skin; assay type: in vitro ADME; settings: for Skin Flux: 0.1% (w/w) clobetasol propionate, human cadaver skin (HEM), linear region 6-28 hours, mean ± SD of three
[4] = as above; assay type: in vitro ADME; settings: for duration over which steady-state delivery is shown: cumulative amount delivered across human cadaver skin from a solidified gel formulation (FIG. 1, FIG. 2)
[5] = pH 7.4
[6] = non-volatile solvent system: Ethyl oleate, hairless mouse skin
[7] = non-volatile solvent system: Isostearic acid, 200 mcL on hairless mouse skin
[8] = non-volatile solvent system: Oleic acid, hairless mouse skin
[9] = non-volatile solvent system: Polyethylene glycol 400, 200 mcL on hairless mouse skin
[10] = non-volatile solvent: Polyethylene glycol 400, hairless mouse skin
[11] = steady state flux of marketed product through hairless mouse or human epidermal membrane, method of Example 1, estimate
[12] = non-volatile solvent system: Glycerol, hairless mouse skin
[13] = non-volatile solvent system: Propylene glycol, hairless mouse skin
[14] = non-volatile solvent system: Span 20 (sorbitan laurate), hairless mouse skin
[15] = non-volatile solvent system: Isopropyl myristate, hairless mouse skin
[16] = solvents isopropyl myristate, ethyl oleate, propylene glycol, and Span 20, hairless mouse skin

For Nc1nc2c(ncn2COCCO)c(=O)[nH]1 [Acyclovir, acyclovir], the “steady state flux in solid gel-forming formulation compared with flux-enabling non-volatile solvent alone” value ([1]; hairless mouse skin) was “higher”, the “Avg. Flux” value ([1]; high flux-enabling non-volatile solvent: ISA + 30% trolamine, hairless mouse skin) was 7 ± 2 μg/cm2/h and the “Skin Flux” value ([1]; non-volatile solvent system: Ethyl oleate + 10% trolamine, hairless mouse skin) was 0.2 ± 0.2 μg/cm^2/h. The “Skin Flux” value [1, 6] was 0.2 ± 0.2 μg/cm^2/h, the “Skin Flux” value ([1]; non-volatile solvent system: Isostearic acid + 10% trolamine, hairless mouse skin) was 2.7 ± 0.6 μg/cm^2/h and the “Skin Flux” value ([1]; non-volatile solvent system: Isostearic acid + 30% trolamine, hairless mouse skin) was 7 ± 2 μg/cm^2/h. The “Skin Flux” value [1, 7] was 0.1 ± 0.09 μg/cm^2/h, the “Skin Flux” value ([1]; non-volatile solvent system: Oleic acid + 10% trolamine, hairless mouse skin) was 3.7 ± 0.5 μg/cm^2/h and the “Skin Flux” value ([1]; non-volatile solvent system: Oleic acid + 30% trolamine, hairless mouse skin) was 14 ± 5 μg/cm^2/h. For the same compound, the “Skin Flux” value [1, 8] was 0.4 ± 0.3 μg/cm^2/h, the “Skin Flux” value [1, 9] was 0 μg/cm^2/h and the “Skin Flux” value ([1]; non-volatile solvent system: Span 80 (sorbitan monooleate), hairless mouse skin) was 0.07 ± 0.03 μg/cm^2/h. The “Average Flux” value ([1]; non-volatile solvent: Isostearic acid + 10% trolamine, hairless mouse skin) was 2.7 ± 0.6 μg/cm2/hr, the “Average Flux” value [1, 10] was 0 μg/cm2/hr and the “Estimated Therapeutically sufficient flux” value [2, 11] was 3 μg/cm^2/h. The “Estimated Therapeutically sufficient flux” value ([2]; steady state flux of marketed product through hairless mouse or human epidermal membrane, method of Example 1, estimate, listed as acyclovir) was “about 3 μg/cm^2/h”.

With CCC(=O)O[C@]1(C(=O)CCl)[C@@H](C)C[C@H]2[C@@H]3CCC4=CC(=O)C=C[C@]4(C)[C@@]3(F)[C@@H](O)C[C@@]21C [Clobetasol propionate, clobetasol propionate] the Average Flux ([3]; all the neat non-volatile solutions studied, over a 30 hour time period, human cadaver skin) was “less than 50 ng/cm^2/hr”, the “Average Flux” value ([3]; non-volatile solvent: Isostearic acid (ISA), human epidermal membrane, mean and st. dev of three) was 0.019 ± 0.003 μg/cm2/hr and the “Average Flux” value ([3]; non-volatile solvent: Light mineral oil, human epidermal membrane, mean and st. dev of three) was 0.031 ± 0.003 μg/cm2/hr. For the same compound, the “Average Flux” value ([3]; non-volatile solvent: Propylene glycol, human epidermal membrane, mean and st. dev of three) was 0.0038 ± 0.0004 μg/cm2/hr, the “average flux relative to light mineral oil” value ([3]; propylene glycol and isostearic acid at a weight ratio of 9:1 vs light mineral oil) was 20 times and the “Skin Flux” value ([3]; solvent: Ethyl oleate) was 19.4 ± 1.6 ng/cm^2/h. The “Skin Flux” value ([3]; solvent: Glycerol) was 7.0 ± 4.1 ng/cm^2/h, the “Skin Flux” value ([3]; solvent: Isostearic acid (ISA)) was 19.4 ± 3.2 ng/cm^2/h and the “Skin Flux” value ([3]; solvent: Light mineral oil) was 31.2 ± 3.4 ng/cm^2/h. The “Skin Flux” value ([3]; solvent: Olive oil) was 13.6 ± 3.3 ng/cm^2/h, the “Avg. Flux” value ([3]; solvent: PG + ISA (Ratio of PG:ISA ranging from 200:1 to 1:1), value is for 9:1 mixture, human epidermal membrane) was 0.8 ± 0.2 μg/cm2/h and the “Skin Flux” value ([3]; solvent: Propylene glycol/ISA (9:1)) was 764.7 ± 193.9 ng/cm^2/h. For the same compound, the “Skin Flux” value ([3]; solvent: Propylene glycol, 200 mcl) was 3.8 ± 0.4 ng/cm^2/h.

For C[C@H]1C[C@H]2[C@@H]3CCC4=CC(=O)C=C[C@]4(C)[C@@]3(F)[C@@H](O)C[C@]2(C)[C@@]1(O)C(=O)CCl [Clobetasol], the “Estimated Therapeutically sufficient flux” value [2, 11] was 0.05 μg/cm^2/h.

For O=C(O)Cc1ccccc1Nc1c(Cl)cccc1Cl [Diclofenac], the “duration over which steady-state delivery is shown” value [4] was 28 h, the “steady state flux in solid gel-forming formulation compared with flux-enabling non-volatile solvent alone” value ([4]; formulation (Example 16) tested on human epidermal membrane, solvent on hairless mouse skin) was “lower” and the “Estimated Therapeutically sufficient flux” value [2, 11] was 1 μg/cm^2/h.

For CC(C)Cn1cnc2c(N)nc3ccccc3c21 [Imiquimod, imiquimod], the “steady state flux in solid gel-forming formulation compared with flux-enabling non-volatile solvent alone” value ([1]; hairless mouse skin) was “unchanged”, the “Skin Flux” value [1, 12] was 0 μg/cm^2/h and the “Skin Flux” value [1, 7] was 0.30 ± 0.06 μg/cm^2/h. The “Skin Flux” value [1, 13] was 0.05 ± 0.02 μg/cm^2/h, the “Skin Flux” value [1, 14] was 0.30 ± 0.05 μg/cm^2/h and the “Skin Flux” value ([1]; non-volatile solvent system: Tween 60 (polyoxyethylene sorbitan monostearate), hairless mouse skin) was 0.02 ± 0.01 μg/cm^2/h.

For CC(C(=O)O)c1cccc(C(=O)c2ccccc2)c1 (stereo not shown) [Ketoprofen, ketoprofen], the “steady state flux in solid gel-forming formulation compared with flux-enabling non-volatile solvent alone” value ([1]; hairless mouse skin) was “lower”, the “Avg. Flux” value ([1]; high flux-enabling non-volatile solvent: Propylene glycol, hairless mouse skin) was 90 ± 50 μg/cm2/h and the “Skin Flux” value [1, 12] was 2 ± 1 μg/cm^2/h. For the same compound, the “Skin Flux” value [1, 8] was 180 ± 20 μg/cm^2/h, the “Skin Flux” value [1, 9] was 5 ± 2 μg/cm^2/h and the “Skin Flux” value [1, 13] was 90 ± 50 μg/cm^2/h. For the same compound, the “Skin Flux” value [1, 14] was 15 ± 3 μg/cm^2/h, the “Average Flux” value [1, 10] was 5 ± 2 μg/cm2/hr and the “Average Flux” value ([1]; non-volatile solvent: Span 20, hairless mouse skin) was 15 ± 3 μg/cm2/hr. For the same compound, the “Estimated Therapeutically sufficient flux” value [2, 11] was 16 μg/cm^2/h and the “Estimated Therapeutically sufficient flux” value ([2]; steady state flux of marketed product through hairless mouse or human epidermal membrane, method of Example 1, estimate, listed as ketoprofen) was “about 16 μg/cm^2/h”.

In the case of CCCN1CCCC[C@H]1C(=O)Nc1c(C)cccc1C [Ropivacaine, ropivacaine], the “steady state flux in solid gel-forming formulation compared with flux-enabling non-volatile solvent alone” value ([1]; hairless mouse skin) is reported as “higher”, the “Avg. Flux” value ([1]; high flux-enabling non-volatile solvent: ISA, hairless mouse skin) is reported as 11 ± 2 μg/cm2/h and the “Avg. Flux” value ([1]; high flux-enabling non-volatile solvent: Span 20, hairless mouse skin) is reported as 26 ± 8 μg/cm2/h. The “Skin Flux” value [1, 12] was 1.2 ± 0.7 μg/cm^2/h, the “Skin Flux” value [1, 7] was 11 ± 2 μg/cm^2/h and the “Skin Flux” value ([1]; non-volatile solvent system: Mineral oil, hairless mouse skin) was 8.9 ± 0.6 μg/cm^2/h. The “Skin Flux” value [1, 14] was 26 ± 8 μg/cm^2/h, the “Skin Flux” value ([1]; non-volatile solvent system: Tween 20 (polyoxyethylene sorbitan monolaurate), hairless mouse skin) was 2.4 ± 0.1 μg/cm^2/h and the “Average Flux” value ([1]; non-volatile solvent: Glycerol, hairless mouse skin) was 1.2 ± 0.7 μg/cm2/hr. For the same compound, the “Average Flux” value ([1]; non-volatile solvent: Mineral oil, hairless mouse skin) was 8.9 ± 0.6 μg/cm2/hr, the “duration over which steady-state delivery is shown” value [4] was 30 h and the “Estimated Therapeutically sufficient flux” value ([2]; Estimated flux based on known potency relative to lidocaine) was 5 μg/cm^2/h. The “Estimated Therapeutically sufficient flux” value ([2]; Estimated flux based on known potency relative to lidocaine, listed as ropivacaine base) was “about 5 μg/cm^2/h”.

For C[C@]12CC[C@H]3[C@@H](CCC4=CC(=O)CC[C@@]43C)[C@@H]1CC[C@@H]2O [Testosterone, testosterone], the “Estimated Therapeutically sufficient flux” value [5] was 0.8 μg/cm^2/h.

In the case of O=C(O)Cc1ccccc1Nc1c(Cl)cccc1Cl [diclofenac acid], the “Skin Flux” value [1, 6] is reported as 7 ± 3 μg/cm^2/h, the “Skin Flux” value [1, 12] is reported as 0 μg/cm^2/h and the “Skin Flux” value [1, 15] is reported as 8 ± 3 μg/cm^2/h. For the same compound, the “Skin Flux” value [1, 13] was 5 ± 2 μg/cm^2/h, the “Skin Flux” value [1, 14] was 3 ± 1 μg/cm^2/h and the “steady state flux relative to currently available marketed products” value [1, 16] was “no more than 10 times”.

For O=C(O)Cc1ccccc1Nc1c(Cl)cccc1Cl [diclofenac sodium], the “Skin Flux” value [1, 6] was 14 ± 4 μg/cm^2/h, the “Skin Flux” value [1, 12] was 1.7 ± 0.3 μg/cm^2/h and the “Skin Flux” value [1, 15] was 13 ± 3 μg/cm^2/h. The “Skin Flux” value [1, 13] was 30 ± 30 μg/cm^2/h, the “Skin Flux” value [1, 14] was 98 ± 20 μg/cm^2/h and the “steady state flux relative to flux value for glycerol” value [1, 16] was “at least 10 times”.
